Measured values: patent US20100292306A1, “Compositions And Methods For The Treatment Of Muscular Dystrophy” (priority 2005, published 2010)
“Also recorded” adds a separate entry of the source.

Assays:
NFκB = assay: Trans AM assays of NFκB in gastrocnemius muscle preparations; format: in vivo, mdx mice; settings: chronic PDTC
Text: The Trans AM assay and corresponding electrophoretic mobility shift assays (EMSA), along with Western Blot analyses of IκB-α (FIG. 1) and total cellular NFκB, are useful for screening compounds that inhibit the NFκB pathway in dystrophic skeletal muscle and identifying new compounds that have corresponding beneficial effects in treating dystrophic subjects.

mdx TS muscle fibers = assay: Intracellular recording of resting membrane potential in TS muscle fibers after chronic treatment; format: in vivo, mdx mice
[1] = Observation of viability, side effects and body weight during treatment; settings: overall sample of PDTC-treated mice
[2] = tested on: mdx triangularis sterni (TS) muscle; assay: Histological cross sections of mdx TS muscle (fiber number, diameter, density, myonuclei, centronucleation); format: in vivo, mdx mice; settings: 50 mg/kg daily 30 days from 30 days of age, read at 60 days; p<0.001
cytosolic IκB-α = assay: Western blot of cytosolic IκB-α in mdx diaphragm after a single PDTC dose; format: in vivo, mdx mice
Procedure: Cytosolic levels of IκB-α may be determined using Western blot techniques. Cytosolic and nuclear fractions may be obtained from isolated diaphragm muscles using the techniques described in Kumar and Boriek, 2003. Briefly, the muscles may be weighed after removing tendinous components, and frozen and homogenized by mortar and pestle in lysis buffer on ice (1 mg muscle/18 μl lysis buffer containing 10 mM HEPES, 10 mM KCl, 1.5 mM MgCl2, 0.1 mM EDTA, 0.1 mM EGTA, 1 mM dithiothreitol, 0.5 mM phenylmethylsulfonylfluoride, 2.0 μg/ml leupeptin, 2.0 μg/ml aprotinin, 0.5 mg/ml benzamidine, at pH 7.9). To lyse the cells, the ground tissue may be subjected to two freeze-thaw cycles and subsequently vortexed and centrifuged (13,000 rpm, 10 s). […]
Equal amounts of proteins (based on Lowry Assay) from treated vs. untreated cytosolic fractions may be boiled in SDS-PAGE sample buffer for 5 min, applied to 10% SDS-PAGE gel, and blotted onto PVDF (polyvinyl difluoride) membrane. […] After additional washing steps, the antibody complex may be detected by chemiluminescence using the ECL detection reagent (Amersham) and densitometric measurements may also be obtained. […]

[3] = Series 3 aged mdx mice, P<0.001 vs saline littermates

S=C(S)N1CCCC1 [PDTC, pyrrolidine dithiocarbamate]
proportion of total cellular NFκB in the cytosolic fraction (NFκB): increases
proportion of nuclear NFκB (NFκB; adult mdx): reduces
total cellular NFκB (NFκB; adult mdx): reduces
resting potential of TS fibers (mdx TS muscle fibers; 50 mg/kg ip 48-76 days, mature mdx mice Series 2 and Series 3): significantly increases
resting potential (mdx TS muscle fibers; Series 1 daily PDTC, middle and caudal regions, relative to nondystrophic levels): completely restored; also recorded: restores
increase in resting potential, caudal region (mdx TS muscle fibers; Series 2 daily PDTC): not
resting potential, middle region (mdx TS muscle fibers; Series 2 daily PDTC, saline −35.8 mV, P<0.05): −45.4 mV
average resting potential, middle region (mdx TS muscle fibers; Series 3 aged mdx mice, N=9 fibers, 2 mice): −32.2±6.5 mV
resting potential, caudal region (mdx TS muscle fibers; [3]): approximately −45 mV
resting potential, overall (middle, caudal, cephalad combined) (mdx TS muscle fibers; [3]): ~−40 mV
overall resting potential (mdx TS muscle fibers; Series 4: administration initiated at 5 months, read at 6.5-13.5 months, N=64 fibers, 3 TS muscles): -49.3 ± 1.4 mV
average resting potential (mdx TS muscle fibers; Series 4: mdx mouse treated between 5 and 13.5 months, N=22 fibers): −53.3±2.0 mV
effect on viability [1]: no obvious effect
percent centronucleation [2]: reduced; also recorded: significantly reduces
period of increased cytosolic IκB-α levels (cytosolic IκB-α; single dose 50 mg/kg ip, adult mdx skeletal muscle): at least 5 h
ambient levels of cytosolic IκB-α (cytosolic IκB-α; single ip dose 50 mg/kg, diaphragm 3 and 5 h after injection, vs vehicle littermates, 50 mg/kg): substantially increased; also recorded: increases
